# Test results as given in a melting point compilation (Tetko et al.; mined from patent text by program, amines drawn as free bases though some values may be those of a salt).
row,Compound,melting point [°C]
1,CC(C)(C)c1ccc(C(=O)NCc2ccc3c(c2)CN(C2CCC(=O)NC2=O)C3=O)cc1 (centres undefined),238 to 240
2,CC(C)(C)OC(=O)n1cc(C(=O)c2ccn3c2CSC3c2cccnc2)c2ccccc21 (centres undefined),150 to 152
3,O=C(Cl)c1cnoc1-c1ccc(Cl)cc1Cl,46 to 50
4,CC(=O)Nc1cc(OCc2ccc3c(c2)OCO3)c(C(=O)CCCCCl)cc1Cl,108 to 110
5,CC1COCc2nc3c(N)nc4ccc(OCc5ccccc5)cc4c3n21 (centres undefined),100 to 120
6,Cc1ccc(-c2cc(OCC(=O)N3CCOCC3)c3c(C(F)(F)F)cccc3n2)cc1,172
7,CCOC(=O)c1ccc2nc(NC)[nH]c2c1,247 to 249
8,O=C(C[C@@H](C(=O)OCc1ccccc1)n1c2ccccc2c2ccccc21)OCCOC(=O)c1ccc(NC(=O)OCc2ccccc2)cc1,58
9,O=C1C(c2ccccc2)=CC2CCCCCC12 (centres undefined),218
10,CCOC(=O)C(=O)N(c1ccccc1)c1ccc(OC)cc1OC,142 to 144
11,CCC(=O)NC(Cl)C(Cl)(Cl)CCl (centres undefined),167
12,COc1ccc(Cc2cnc(-c3ccccc3)c(-c3ccccc3)n2)cc1,102 to 103
13,CC(C)c1cccc(CC(=O)O)c1OCCCc1cn(-c2ccc(C(F)(F)F)cn2)nc1C(C)C,108 to 109
14,O=C(NCc1ccccc1)c1ccnc(-n2ccc(O)cc2=O)c1,102 to 105
15,O=C1c2cccc3cccc(c23)C(=O)N1CCN1CCC(c2c[nH]c3ccc(F)cc23)CC1,235
16,CC(C)(Oc1ccc(CC(=O)Nc2cc(Cl)c(Cl)c(Cl)c2)cc1)C(=O)O,160
17,CCCCCCCCCCc1ccc2cc(/C=C/c3cc4ccc(CCCCCCCCCC)cc4cc3SC)c(SC)cc2c1,117 to 118
18,ONCc1ccccc1,56 to 57
19,CC(C(=O)O)c1ccc2oc(-c3cccnc3)nc2c1 (centres undefined),197 to 200
20,COC(=O)C=Cc1ccc(OCCc2nc(-c3ccccc3)oc2C)cc1,114 to 115
21,Cc1cc(Br)ccc1C1(Cn2cncn2)OCCO1,148
22,CCCNCc1ccc(-c2cc3ncnc(Nc4ccc5[nH]ccc5c4)c3s2)cc1,190 to 205
23,Cc1[nH]c(C(=O)NCCc2ccccn2)c(C)c1-c1nc2ccc(C(=O)c3ccccc3)cc2[nH]1,238 to 244
24,COC(=O)c1ccc(Cn2c(C)nc3ccccc32)c2ccccc12,207 to 208
25,CN1C(=O)CCC(C)(C)c2cc(Nc3ncc(Cl)c(Nc4ccccc4S(=O)(=O)N(C)C)n3)ccc21,198 to 200

row,Compound,melting point [°C]
1,O=CN(O)C(CO)CS(=O)(=O)c1ccc(Oc2ccc(OC(F)(F)F)cc2)cc1 (centres undefined),115 to 117
2,Cc1cc(Cn2cnc3c2CC(C(=O)O)N(C(=O)C(c2ccccc2)c2ccccc2)C3)ccc1N(C)C (centres undefined),72 to 75
3,CC1=CC(C)(C)OC1=O,54 to 55
4,CN(C)c1ccc(C(N)P(O)O)cc1 (centres undefined),223 to 224
5,COc1cc(CSc2ccc(O)cc2)cc(O)c1O,140
6,COC(=O)Cc1nc2cc(OC)c(OC)cc2c(-c2ccc(OC)c(OC)c2)c1C(=O)OC,170 to 171
7,O=Cc1ccc(OC(F)F)c(OCC2CC2)c1,115 to 116
8,COC(=O)c1cc2cc(OC)c(OC)cc2c(-c2cccnc2)c1C(=O)OC,95 to 96
9,COC(=O)c1c[nH]c(C(=O)c2cc(OC)cc(OC)c2)c1,115 to 120
10,COc1cc(C(C)C#Cc2cnc(N)nc2N)cc(OC)c1OC (centres undefined),220 to 222
11,COC(=O)c1cccc(C)c1NS(=O)(=O)c1nc2nc(C)cc(C)n2n1,181 to 182
12,COC(=O)[C@H]1Cc2c([nH]c3ccccc23)[C@@H](c2ccc3occc3c2)N1C(=O)[C@H](C)NC(=O)OCc1ccccc1,91 to 92
13,O=C(NCCO)/C(=C/c1ccc(C2CC2)cc1)NC(=O)c1ccc(OCCc2ccccc2)cc1,113 to 115
14,COC(=O)C1CSC(c2cc3ccccc3n2C)=N1 (centres undefined),78 to 80
15,O=C1CCCN1C1=CC(CF)(CF)Oc2ccc(C(F)(F)F)cc21,125 to 127
16,Nc1nccnc1C(=O)NCCCn1ccnc1,118 to 120
17,O=C(CCCSc1nc[nH]n1)NC/C=C\COc1cc(CN2CCCCC2)ccn1,87 to 89
18,CCOC(=O)c1cnc2ccc(OCC)nc2c1Nc1ccc(Oc2ccccn2)cc1,148 to 151
19,O=C1NC(=O)C(Cc2ccc(SCc3ccccc3)cc2)S1 (centres undefined),102 to 103
20,COC(=O)COc1c(OC)cc(C(=O)C#Cc2cc(-c3cccs3)c(OC)cc2OC)cc1OC,153 to 155
21,COC(=O)C1=C(C)NC(c2c(F)cccc2F)=NC1c1ccc(F)cc1Cl (centres undefined),126 to 128
22,COc1ccc(C(=O)c2ccc(OCc3nc(-c4cccc(OS(C)(=O)=O)c4)oc3C)cc2)c(OC(C)(C)C(=O)O)c1,182 to 183
23,C=Cc1cc(CNC(=O)OC(C)(C)C)cc(Cl)c1NS(C)(=O)=O,133 to 135
24,Fc1cccc(CC[C@H]2CN(Cc3ccccc3)CCN2Cc2ccccc2)c1,69 to 71
